Reference: patent US5728724A, “Benzothiophene compounds” (Eli Lilly and Company, priority 1996, dated 1998)
Structures can show the parent of a compound that is named as a salt.

Experiments:
[1] = test system: Uterine Eosinophil Peroxidase (EPO); assay: Uterine Eosinophil Peroxidase (EPO) Assay in ovariectomized rats; type: in vivo, Sprague Dawley rats; set-up: key: max velocity of A450 increase over a 15 s interval; settings: oral, daily for 4 days, OVX rats
Description: (§1) In the examples illustrating the methods, a post-menopausal model was used in which effects of different treatments upon circulating lipids were determined.
(§2) Seventy-five day old female Sprague Dawley rats (weight range of 200 to 225g) were obtained from Charles River Laboratories (Portage, Mich.). The animals were either bilaterally ovariectomized (OVX) or exposed to a Sham surgical procedure at Charles River Laboratories, and then shipped after one week. Upon arrival, they were housed in metal hanging cages in groups of 3 or 4 per cage and had ad libitum access to food calcium content approximately 0.5%) and water for one week. Room temperature was maintained at 22.2°±1.7° C. with a minimum relative humidity of 40%. The photoperiod in the room was 12 hours light and 12 hours dark.
(§3) Dosing Regimen Tissue Collection. After a one week acclimation period (therefore, two weeks post-OVX) daily dosing with test compound was initiated. […] Animals were dosed daily for 4 days. Following the dosing regimen, animals were weighed and anesthetized with a ketamine: Xylazine (2:1, V:V) mixture and a blood sample was collected by cardiac puncture. The animals were then sacrificed by asphyxiation with CO2, the uterus was removed through a midline incision, and a wet uterine weight was determined.
Uterine Eosinophil Peroxidase (EPO) Assay. Uteri were kept at 4° C. until time of enzymatic analysis. The uteri were then homogenized in 50 volumes of 50 mM Tris buffer (pH-8.0) containing 0.005% Triton X-100. Upon addition of 0.01% hydrogen peroxide and 10 mM O-phenylenediamine (final concentrations) in Tris buffer, increase in absorbance was monitored for one minute at 450 nm. The presence of eosonophils in the uterus is an indication of estrogenic activity of a compound. The maximal velocity of a 15 second interval was determined over the initial, linear portion of the reaction curve.

[2] = test system: MCF-7 breast adenocarcinoma cells; assay: MCF-7 Proliferation Assay (tritiated thymidine); type: cell-based; settings: 48 hours, tritiated thymidine incorporation; for IC50: Homo sapiens, MCF7
Description: MCF-7 breast adenocarcinoma cells (ATCC HTB 22) were maintained in MEM (minimal essential medium, phenol red-free, Sigma, St. Louis, Mo.) supplimented with 10% fetal bovine serum (FBS) (V/V), L-glutamine (2 mM), sodium pyruvate (1 mM), HEPES {(N-[2-hydroxyethyl]piperazine-N'-[2-ethanesulfonic acid]10 mM}, non-essential amino acids and bovine insulin (1 ug/mL) (maintenance medium). Ten days prior to assay, MCF-7 cells were switched to maintenance medium supplemented with 10% dextran coated charcoal stripped fetal bovine serum (DCC-FBS) assay medium) in place of 10% FBS to deplete internal stores of steroids. MCF-7 cells were removed from maintenance flasks using cell dissociation medium (Ca++/Mg++ free HBSS (phenol red-free) supplemented with 10 mM HEPES and 2 mM EDTA). Cells were washed twice with assay medium and adjusted to 80,000 cells/mL. Approximately 100 μL (8,000 cells) were added to flat-bottom microculture wells (Costar 3596) and incubated at 37° C. in a 5% CO2 humidified incubator for 48 hours to allow for cell adherence and equilibration after transfer. Serial dilutions of drugs or DMSO as a diluent control were prepared in assay medium and 50 μL transferred to triplicate microcultures followed by 50 μL assay medium for a final volume of 200 μL. After an additional 48 hours at 37° C. in a 5% CO2 humidified incubator, microcultures were pulsed with tritiated thymidine (1 uCi/well) for 4 hours. Cultures were terminated by freezing at -70° C. for 24 hours followed by thawing and harvesting of microcultures using a Skatron Semiautomatic Cell Harvester. Samples were counted by liquid scintillation using a Wallac BetaPlace β counter. Results in Table 2 below show the IC50 for certain compounds of the present invention.

[3] = test system: uterus of ovariectomized (OVX) rats; assay: Uterine weight in ovariectomized rats (post-menopausal model, agonist activity); type: in vivo, Sprague Dawley rats; settings: daily for 4 days; for Uterine Weight (% increase vs. OVX): oral
Description: as §1, §2, §3

Serum Cholesterol = assay: Serum cholesterol analysis in ovariectomized rats; type: in vivo, Sprague Dawley rats; settings: daily for 4 days; for Serum Cholesterol (% decrease vs. OVX): oral
Description: as §1, §2, §3
Cholesterol Analysis. Blood samples were allowed to clot at room temperature for 2 hours, and serum was obtained following centrifugation for 10 minutes at 3000 rpm. Serum cholesterol was determined using a Boehringer Mannheim Diagnostics high performance cholesterol assay. Briefly the cholesterol was oxidized to cholest-4-en-3-one and hydrogen peroxide. The hydrogen peroxide was then reacted with phenol and 4-aminophenazone in the presence of peroxidase to produce a p-quinone imine dye, which was read spectrophotemetrically at 500 nm. Cholesterol concentration was then calculated against a standard curve. The entire assay was automated using a Biomek Automated Workstation.

[4] = Rattus norvegicus, po, 96 h, 0.1 mg/kg, read-out: Uterine Weight (% increase vs. OVX)
[5] = Rattus norvegicus, po, 96 h, 1.0 mg/kg, read-out: Uterine Weight (% increase vs. OVX)
[6] = Rattus norvegicus, po, 96 h, 10.0 mg/kg, read-out: Uterine Weight (% increase vs. OVX)
[7] = Rattus norvegicus, po, 96 h, 0.1 mg/kg, OVX rats, read-out: Serum Cholesterol (% decrease vs. OVX)
[8] = Rattus norvegicus, po, 96 h, 1.0 mg/kg, OVX rats, read-out: Serum Cholesterol (% decrease vs. OVX)
[9] = Rattus norvegicus, po, 96 h, 10.0 mg/kg, OVX rats, read-out: Serum Cholesterol (% decrease vs. OVX)

SMILES	IC50 [2]	IC50, MCF-7 proliferation [2]	Uterine EPO (V. max) ([1]; 0.1 mg/kg)	Uterine EPO (V. max) ([1]; 1.0 mg/kg)	Uterine EPO (V. max) ([1]; 10.0 mg/kg)	change in vivo at 0.1 mg/kg [3, 4]	change in vivo at 1 mg/kg [3, 5]	change in vivo at 10 mg/kg [3, 6]	inhibition in vivo at 0.1 mg/kg (Serum Cholesterol; [7])	inhibition in vivo at 1 mg/kg (Serum Cholesterol; [8])	inhibition in vivo at 10 mg/kg (Serum Cholesterol; [9])	further results
O=C(c1ccc(OCCN2CCCCC2)cc1)c1c(-c2cccc3ccccc23)sc2cc(O)ccc12 [Example 2, [2-(1-Naphthyl)-6-hydroxybenzothien-3-yl][4-[2-(1-piperdinyl)ethoxy]phenyl]methanone]	0.8 nM	–	4.5	4.8	3.6	28.8%	28.1%	21.2%	56%	60.6%	70.6%	–
O=C(c1ccc(OCCN2CCCCC2)cc1)c1c(Cc2ccc(O)cc2)sc2cc(O)ccc12 [Example 11, [2-(4-Hydroxyphenyl)methyl-6-hydroxybenzothien-3-yl][4-[2-(1-piperdinyl)ethoxy]phenyl]methanone]	5 nM	–	16.5	18.9	40.5	80.5%	44.6%	46.9%	43%	35.3%	68.3%	Uterine EPO (V. max) ([1]; 0.01 mg/kg): 33.0; change in vivo at 0.01 mg/kg ([3]; Rattus norvegicus, po, 96 h, 0.01 mg/kg, read-out: Uterine Weight (% increase vs. OVX)): 77.9%; inhibition in vivo at 0.01 mg/kg (Serum Cholesterol; Rattus norvegicus, po, 96 h, 0.01 mg/kg, OVX rats, read-out: Serum Cholesterol (% decrease vs. OVX)): 41%
COc1ccc2c(C(=O)c3ccc(OCCN4CCCCC4)cc3)c(-c3cccs3)sc2c1 [Example 6, [2-(2-Thienyl)-6-methoxybenzothien-3-yl][4-[2-(1-piperdinyl)ethoxy]phenyl]methanone hydrochloride]	–	–	–	–	–	–	–	–	–	–	–	Uterine EPO (V. max) ([1]; 0.1 mg/kg, hydrochloride): 3.3; Uterine EPO (V. max) ([1]; 1.0 mg/kg, hydrochloride): 4.8; Uterine EPO (V. max) ([1]; 10.0 mg/kg, hydrochloride): 4.8; Uterine Weight (% increase vs. OVX) ([3]; 0.1 mg/kg, hydrochloride): 3.4%; Uterine Weight (% increase vs. OVX) ([3]; 1.0 mg/kg, hydrochloride): 4.2%; Uterine Weight (% increase vs. OVX) ([3]; 10.0 mg/kg, hydrochloride): 9.5%; Serum Cholesterol (% decrease vs. OVX) (Serum Cholesterol; 0.1 mg/kg, hydrochloride): 23.1%; Serum Cholesterol (% decrease vs. OVX) (Serum Cholesterol; 1.0 mg/kg, hydrochloride): 35.8%; Serum Cholesterol (% decrease vs. OVX) (Serum Cholesterol; 10.0 mg/kg, hydrochloride): 29.6%
O=C(c1ccc(OCCN2CCCCC2)cc1)c1c(-c2ccc3ccccc3c2)sc2cc(O)ccc12 [Example 4, [2-(2-Naphthyl)-6-hydroxybenzothien-3-yl][4-[2-(1-piperdinyl)ethoxy]phenyl]methanone]	80 nM	–	12.3	42.9	35.7	72.7%	46.8%	59.5%	48.1%	54.5%	63.6%	–

Second part, led by results:

IC50 [2]	IC50, MCF-7 proliferation [2]	SMILES	Uterine EPO (V. max) ([1]; 0.1 mg/kg)	Uterine EPO (V. max) ([1]; 1.0 mg/kg)	Uterine EPO (V. max) ([1]; 10.0 mg/kg)	change in vivo at 0.1 mg/kg [3, 4]	change in vivo at 1 mg/kg [3, 5]	change in vivo at 10 mg/kg [3, 6]	inhibition in vivo at 0.1 mg/kg (Serum Cholesterol; [7])	inhibition in vivo at 1 mg/kg (Serum Cholesterol; [8])	inhibition in vivo at 10 mg/kg (Serum Cholesterol; [9])	further results
20 nM	–	O=C(c1ccc(OCCN2CCCCC2)cc1)c1c(-c2cccs2)sc2cc(O)ccc12 [Example 7, [2-(2-Thienyl)-6-hydroxybenzothien-3-yl][4-[2-(1-piperdinyl)ethoxy]phenyl]methanone]	1.8	4.5	8.4	-1.7%	32.4%	46.9%	-18.6%	-0.9%	51.4%	–
10 nM	–	O=C(c1ccc(OCCN2CCCCC2)cc1)c1c(-c2ccsc2)sc2cc(O)ccc12 [Example 9]	0.9	3.3	2.4	8.8%	1.2%	54.3%	0.6%	29.8%	31.9%	–
–	Not active at the concentration tested	COc1ccc(Cc2sc3cc(OC)ccc3c2C(=O)c2ccc(OCCN3CCCCC3)cc2)cc1 [Example 10, [2-(4-Methoxyphenyl)methyl-6-methoxybenzothien-3-yl][4-[2-(1-piperdinyl)ethoxy]phenyl]methanone]	6.6	46.2	65.4	-5.6%	39.2%	45.2%	10.3%	49%	50%	–
–	Not active at the concentration tested	COc1ccc2c(C(=O)c3ccc(OCCN4CCCCC4)cc3)c(-c3ccsc3)sc2c1 [Example 8]	3.0	0.9	4.2	6.6%	10.3%	21.3%	-23.4%	-3.5%	35%	–
–	Not active at the concentration tested	COc1ccc2c(C(=O)c3ccc(OCCN4CCCCC4)cc3)c(-c3cccs3)sc2c1 [Example 5, [2-(2-Thienyl)-6-methoxybenzothien-3-yl][4-[2-(1-piperdinyl)ethoxy]phenyl]methanone]	3.0	3.3	4.2	2.4%	–	–	–	–	26.3%	Uterine Weight (% increase vs. OVX) ([3]; 1.0 mg/kg): 1.4%; Uterine Weight (% increase vs. OVX) ([3]; 10.0 mg/kg): 28.6%; Serum Cholesterol (% decrease vs. OVX) (Serum Cholesterol; 0.1 mg/kg): 6%; Serum Cholesterol (% decrease vs. OVX) (Serum Cholesterol; 1.0 mg/kg): -10.2%
